“Also recorded” adds a separate entry of the source.

The test has as its system C57BL/6J mice. The test can be described thus: Scopolamine-induced amnesia in the novel object recognition (NOR) test. The format is in vivo. As for the experimental part:
The scopolamine-induced amnesia in the novel object recognition (NOR) test in mice is a recognized in vivo model of Alzheimer Disease (AD).
The aim of this study is to examine whether Melafenoxate (NLS-8) improves amnesia induced by scopolamine in the NOR test.
Experiments were carried out on C57BL/6J mice.
In a first step of the experiment, NLS-8 was tested at 25, 50 and 100 mg/kg.
Animals were divided into 6 groups (N=4-10/group).
At T=0 min, they received the following treatments by intraperitoneal (i.p.) route: • Control group: vehicle. • Scopolamine group: scopolamine (1.2 mg/kg). • NLS-8 25 group: NLS-8 (25 mg/kg)+scopolamine (1.2 mg/kg). • NLS-8 50 group: NLS-8 (50 mg/kg)+scopolamine (1.2 mg/kg). • NLS-8 100 group: NLS-8 (100 mg/kg)+scopolamine (1.2 mg/kg). • NLS-8 150 group: NLS-8 (150 mg/kg)+scopolamine (1.2 mg/kg).
At T=30 min following treatment, animals were subjected to a sample trial. They were placed for a 12-min session in a circular experimental box in which two identical objects were presented (50% of animals: two brown cylindrical vials; 50% of animals: two black rectangular columns). At t=120 min following treatments, mice were subjected to a choice trial. They were placed again for a 12-min session in the same experimental box in which two different objects (a vial and a column) were presented: one of the objects (termed as familiar object) presented in the sample trial and a novel object. Exploration of the objects was recorded by an experimenter blind to treatment and unaware of which object was the novel one and which object was the familiar one.
DI(discrimination index)=100 ×(exploration time of the novel object−exploration time of the familiar object)/(exploration time of the novel object+exploration time of the familiar object). • Index of exploration: N+F=exploration time of the novel object+exploration time of the familiar object.
• Within group comparisons: DI vs. 0 (paired Student's t test). • Between group comparisons vs. the Control group and vs. the Scopo group: unpaired Student's t test.

Setting [1] is: NLS-8 25-150 mg/kg + scopolamine 1.2 mg/kg i.p.

Consider `O=C(COc1ccc(Cl)cc1)OCCNC12CC3CC(CC(C3)C1)C2` [Melafenoxate, 2-(1-adamantylamino)ethyl 2-(4-chlorophenoxy)acetate], for which the “discrimination index vs. 0 (within group)” value was “Non-significantly higher than 0” (NLS-8 25 mg/kg + scopolamine 1.2 mg/kg i.p.), “Significantly higher than 0” (NLS-8 50 mg/kg + scopolamine 1.2 mg/kg i.p.), “Non-significantly higher than 0” (NLS-8 100 mg/kg + scopolamine 1.2 mg/kg i.p.) and “Non-significantly higher than 0” (NLS-8 150 mg/kg + scopolamine 1.2 mg/kg i.p.). Moreover, the “exploration time of objects (N+F) during the choice trial” value by setting is: (NLS-8 50 mg/kg + scopolamine 1.2 mg/kg i.p., vs. Control and Scopo groups) “higher than that of Control and Scopo groups”; (all other comparisons (other than NLS-8 50 group) vs. Control and vs. Scopo group) “not significant”. Under “NLS-8 25-150 mg/kg”, the “effect on amnesia induced by scopolamine (conclusion)” value is reported as “can improve amnesia induced by scopolamine”. Moreover, under setting [1], the “discrimination index, NLS-8 groups vs. Control group” value is listed as “Not significantly different”. The “discrimination index, NLS-8 groups vs. Scopo group” value under setting [1] is given as “Not significantly different; also recorded: not significant”.
